Source: ChEMBL document CHEMBL1201862, “PubChem BioAssay data set” (2004)
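Tested at 5 concentrations; 48 h exposure; 96-well plates; endpoints linearly interpolated, else capped at highest concentration. GI50 is the concentration that inhibits growth by half.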 Activity calls are given as the source filed them. Cut-off read from the data, not from the text of the source: active = GI50 up to about 1.1 µM and inactive = higher. Where a SMILES comes first, the peptide text is derived from it. The star is where a group is joined. Fmoc = O=C(OCC1c2ccccc2-c2ccccc21)*; Boc = CC(C)(C)OC(=O)*

What was measured:
Assay in all cases: growth of human tumour cells (NCI), 48 h
[1] = system: NCI-H226
[2] = system: NCI-H460
[3] = system: RPMI-8226
[4] = system: UACC-257
[5] = system: COLO 205
[6] = system: MCF7
[7] = system: CAKI-1
[8] = system: RXF 393
[9] = system: SW-620
[10] = system: SK-MEL-28
[11] = system: UO-31
[12] = system: HL-60
[13] = system: A549
[14] = system: OVCAR-8
[15] = system: SF-539
[16] = system: HCT-15
[17] = system: SF-268
[18] = system: HOP-62
[19] = system: DU-145
[20] = system: HT-29
[21] = system: OVCAR-3
[22] = system: MOLT-4
[23] = system: M14
[24] = system: SK-OV-3
[25] = system: EKVX
[26] = system: SF-295
[27] = system: SR
[28] = system: HOP-92
[29] = system: MDA-N
[30] = system: BT-549
[31] = system: SN12C
[32] = system: ACHN
[33] = system: HCC 2998
[34] = system: UACC-62
[35] = system: KM12
[36] = system: T47D
[37] = system: OVCAR-4
[38] = system: Hs-578T
[39] = system: SK-MEL-2
[40] = system: HCT-116
[41] = system: Malme-3M
[42] = system: SNB-75
[43] = system: SK-MEL-5
[44] = system: K562
[45] = system: U-251
[46] = system: NCI-H23
[47] = system: SNB-19
[48] = system: IGROV-1
[49] = system: NCI/ADR-RES
[50] = system: PC-3
[51] = system: TK-10
[52] = system: MDA-MB-435
[53] = system: 786-0
[54] = system: CCRF-CEM
[55] = system: LOX IMVI
[56] = system: OVCAR-5
[57] = system: MDA-MB-231
[58] = system: NCI-H522

Measured: GI50

CC(C)(C)OC(=O)NCCCCC(NC(=O)C(Cc1c[nH]c2ccccc12)NC(=O)OCC1c2ccccc2-c2ccccc21)C(=O)O (centres undefined) (Fmoc-Trp-Lys(Boc)-OH; configuration not given here)
> 100 µM: [16]
inactive: [1] 43.7 µM | [2] 34.7 µM | [3] 25 µM | [4] 79.3 µM | [5] 64.7 µM | [6] 22.9 µM | [7] 17.1 µM | [8] 59.4 µM | [9] 48.3 µM | [10] 26.3 µM | [11] 68.7 µM | [12] 15.5 µM | [13] > 100 µM | [14] 44.4 µM | [15] 42.3 µM | [17] 32.5 µM | [18] 39.5 µM | [19] 76.4 µM | [20] 40.5 µM | [21] 18.2 µM | [22] 19.8 µM | [23] 77.3 µM | [24] 5 µM | [25] > 100 µM | [26] 62.7 µM | [27] 21.9 µM | [28] 23.8 µM | [29] 35.9 µM | [30] 35.6 µM | [31] 52.2 µM | [32] > 100 µM | [33] 40.6 µM | [34] 20.9 µM | [35] 47.8 µM | [36] 54.7 µM | [37] 33.7 µM | [38] 30.3 µM | [39] 23.1 µM | [40] 32 µM | [41] 47.8 µM | [42] 55 µM | [43] 90.2 µM | [44] 18.8 µM | [45] 17.1 µM | [46] 31 µM | [47] 27.3 µM | [48] 52.2 µM | [49] > 100 µM | [50] 34.8 µM | [51] > 100 µM | [52] 49.5 µM | [53] 80 µM | [54] 24.7 µM | [55] 21.6 µM | [56] > 100 µM | [57] 27.5 µM

C[C@H]1CCCCC[C@@H]2CC(=O)CC2C(=O)CCC(=O)O1 (some centres undefined)
inactive: [1] 16.7 µM | [2] > 100 µM | [3] > 100 µM | [4] > 100 µM | [5] > 100 µM | [6] > 100 µM | [8] > 100 µM | [9] > 100 µM | [10] > 100 µM | [12] > 100 µM | [13] > 100 µM | [14] > 100 µM | [15] > 100 µM | [17] > 100 µM | [18] > 100 µM | [19] > 100 µM | [20] > 100 µM | [21] > 100 µM | [22] > 100 µM | [23] > 100 µM | [25] > 100 µM | [26] > 100 µM | [27] > 100 µM | [28] > 100 µM | [29] > 100 µM | [30] > 100 µM | [31] > 100 µM | [32] > 100 µM | [33] > 100 µM | [34] 6.68 µM | [35] > 100 µM | [36] > 100 µM | [37] > 100 µM | [38] > 100 µM | [40] > 100 µM | [58] > 100 µM | [41] > 100 µM | [42] 9.02 µM | [43] > 100 µM | [44] > 100 µM | [45] > 100 µM | [46] > 100 µM | [47] > 100 µM | [48] > 100 µM | [49] 52.6 µM | [50] > 100 µM | [51] > 100 µM | [52] > 100 µM | [53] > 100 µM | [54] > 100 µM | [56] > 100 µM | [57] > 100 µM
> 100 µM: [16]

NC(Cc1ccccc1CP(=O)(O)O)C(=O)O (centres undefined)
inactive: [2] > 100 µM | [3] > 100 µM | [4] > 100 µM | [5] > 100 µM | [6] > 100 µM | [7] > 100 µM | [8] > 100 µM | [9] > 100 µM | [10] > 100 µM | [11] > 100 µM | [12] > 100 µM | [13] > 100 µM | [14] > 100 µM | [15] > 100 µM | [17] > 100 µM | [19] > 100 µM | [20] > 100 µM | [21] > 100 µM | [22] > 100 µM | [23] > 100 µM | [24] > 100 µM | [25] > 100 µM | [26] > 100 µM | [27] > 100 µM | [28] > 100 µM | [29] > 100 µM | [30] > 100 µM | [31] > 100 µM | [32] > 100 µM | [33] > 100 µM | [34] 53 µM | [35] > 100 µM | [36] 35.9 µM | [37] > 100 µM | [38] > 100 µM | [39] > 100 µM | [40] > 100 µM | [58] > 100 µM | [42] > 100 µM | [43] > 100 µM | [44] > 100 µM | [45] > 100 µM | [46] > 100 µM | [47] > 100 µM | [48] > 100 µM | [49] > 100 µM | [50] > 100 µM | [51] > 100 µM | [52] > 100 µM | [54] > 100 µM | [55] > 100 µM | [56] > 100 µM | [57] > 100 µM
> 100 µM: [16]
